Data reported in patent publication US20100197584A1, “USE OF CURCUMIN TO BLOCK BRAIN TUMOR FORMATION IN MICE” (Research Foundations of the City University of- New York, priority 2007, published 2010).

Key:
[1] = tested on: B16F10 mouse melanoma cells; assay: Tumor formation in peripheral tissue (B16F10 cells injected into the neck); format: in vivo, C57BL mice
Experimental: Generation of Tumors. C57BL mice were given food and water ad libitum and subjected to 12 hour dark/12 hour light cycles. To generate tumors in the peripheral tissue, B16F10 mouse melanoma cells (10^4 cells in 10 μl PBS) were injected into the necks of male and female C57BL mice. Curcumin Treatment. The control mice received, aseptically, the carrier (3% DMSO in 200 μl PBS) daily through the tail vein after placing the mouse in a restraining cage without anesthetics. Other mice similarly received […] in 200 μl of PBS containing 3% DMSO daily through the tail vein.

[2] = tested on: B16F10 cells; assay: Intracranial injection of curcumin on brain tumor cells (B16F10); format: in vivo, mice; details: 5 μl of 3 mM curcumin via cannula every other day
From the text: Each mouse was fitted with a stainless steel guide cannula (Plastic Ones, System C313G, Roanoke, Va., USA) to administer curcumin directly to the brain. Cannulas were implanted into the right frontal cortex at the same coordinates as used earlier for intracerebral injection. The guide cannula was fixed to the skull with dental cement. A removable stylet plugged the guide cannula except during the time of drug injection. B16F10 cells (103) were delivered into mice in two sets on the first day. Starting from the third day, 5 μl of curcumin (3 mM) in PBS containing 15% DMSO were infused through the cannula of one set of mice (three), whereas the other set of mice (three) received 5 μl of PBS containing 15% DMSO (carrier). Considering that the brain volume of an adult mouse is about 400 μl, dispersion of this solution would give a final concentration of 37.5 μM curcumin and 0.187% DMSO in the brain. This infusion was started on the third day and then performed every other day, until day 19. The brains of the treated mice were removed and soaked (fixed) in 4% paraformaldehyde.

[3] = tested on: ovarian cancer; details: orthotopic murine model of ovarian cancer (Lin et al. 2007); cited from earlier work
[4] = tested on: cyclin D1; assay: Western blot of B16F10 cells, cyclin D1; format: cell-based, mouse; details: 50 μM
Experimental: B16F10 cells were cultured in 10-cm plates and then treated in duplicate with carrier or curcumin (50 μM). Following treatment for appropriate time periods, the cells were washed with PBS, lysed in RIPA buffer (PBS containing 1% Nonidet P40, 0.5% sodium deoxycholate, 0.1% SDS, 0.5 mM Na3VO4 plus freshly added PMSF and protease inhibitor cocktail; Boeringer-Roche), and then 20 μg of lysate protein (per lane) were analyzed by SDS-10% PAGE and Western blot analysis. Antibody concentrations used were: anti-phospho-NF-κB (1:1000) (Santa Cruz Biotechnology, Santa Cruz, Calif.), anti-phospho-Akt (1:5000) (Cell Signaling, CA), anti-cyclin D1 (1:1000) (Cell Signaling, CA), anti-BclXL (1:500) (Santa Cruz Biotechnology), anti-VEGF (1:500) (Santa Cruz Biotechnology), and anti-β-actin (1:1000) (Sigma, St. Louis, Mo.).

[5] = tested on: breast tumor cell lines; details: several breast tumor cell lines (Mehta et al. 1997); cited from earlier work
[6] = tested on: HOG (human oligodendroglioma) cells; assay: Cell viability assay using MTT, HOG; format: cell-based; details: 25 μM and 50 μM, 48 h or 96 h, versus control cells (FIG. 6e)
Experimental: Cells. B16F10 (mouse melanoma), GL261 (mouse glioma), HOG (human oligodendroglioma), A549 (human lung cancer), and N18 (mouse neuroblastoma) cells were cultured separately in DMEM containing 10% (v/v) fetal bovine serum and 1% (v/v) penicillin-streptomycin (PS) and allowed to grow to 40% confluence in a 96-well plate.
Curcumin Treatment. Two hours before drug treatment, the medium in each well was replaced with 200 μl Neurobasal medium supplemented with 2% (v/v) B27 and 1% (v/v) PS (Drug-treatment Medium). A stock solution (40 mM) of curcumin was prepared in sterile dimethyl sulfoxide (DMSO) (Example 1). Through serial dilution of each stock solution in Drug-treatment Medium, the following concentrations were obtained: 20 μM and 50 μM (for caspase 3/7 assays) or 25 μM and 50 μM (for MTT assays). […] Additionally, the background absorbance was determined from parallel wells containing only the Drug-treatment Medium plus a particular concentration of the drug (no cells).
Cell Viability Assay Using MTT (3-(4,5-Dimethylthiazolyl-2)-2,5-Diphenyltetrazolium Bromide). […] Absorbance was measured at 570 nm using a 96-well multi scanner auto-reader with the extraction buffer used as blank. For curcumin samples, the absorbance obtained from the corresponding curcumin plus medium samples was subtracted.

[7] = tested on: human glioma cells; details: human glioma cells in vitro (Karmakar 2006; Dhandapani 2007); cited from earlier work

COc1cc(/C=C/C(=O)CC(=O)/C=C/c2ccc(O)c(OC)c2)ccc1O [curcumin]
condition of mice after treatment ([1]; even after the curcumin injection had been discontinued for 18 days, carrier mice died in about a month): remained normal indefinitely
outward sign of tumor or lesion ([1]; male and female C57BL mice, B16F10 cells in neck, 667 curcumin in 200 μl PBS 3% DMSO daily, tail vein): no outward sign of tumor or lesion
mice with a detectable brain tumor ([2]; day 3 to day 19 (FIG. 11)): None
behavior ([2]; day 3 to day 19, carrier mice collapsed day 15-25): normal behavior
tumor growth [3]: reduces tumor growth
cyclin D1 levels (Western blot) ([4]; active cell division (first 48 h)): decrease
cyclin D1 inhibition (Western blot) ([4]; subsequently, when cell division had slowed down): not observed
proliferation [5]: antiproliferative effects
cell viability (MTT) [6]: dramatic decrease
apoptosis [7]: triggers apoptosis
